Results reported in article PMC6515668, “Liposomes for effective drug delivery to the ocular posterior chamber” (Journal of Nanobiotechnology, 2019).
Counter-ions that a name gives are not always drawn.

Assays:
[1] = Microdialysis probe recovery and stability (dialysis and retrodialysis); details: retrodialysis, 7 h
Description: Normal saline containing 30% ethanol was chosen as the perfusate for two drugs with opposing polarity, and the flow rate was 1.5 μL/min according to our previous study. Then, an in vitro RR% evaluation was performed via dialysis and retrodialysis. The in vivo stability study was performed using a retrodialysis method, which provided the evidence for the microdialysis method that was used for the in vivo pharmacokinetics study.

ARPE-19 = experiment: In vitro anti-ROS efficacy (H2O2-exposed cells, DCFH-DA); format: cell-based, human; details: ARPE-19 exposed to 200 μM H2O2 for 24 h, versus model group
Description: Human retinal pigment epithelial cells (ARPE-19) were maintained in Dulbecco’s modified Eagle’s medium/Ham’s F12 (Gibco) supplemented with 10% fetal bovine serum (Gibco), 100 IU/mL penicillin (Gibco), and 100 μg/mL streptomycin (Gibco) at 37 °C in an atmosphere of 5% CO2. After incubation, cells were exposed to 200 μM H2O2 for 24 h, and fluorescent probes (Beyotime Biotechnology, China) were used to measure intracellular ROS levels (DCFH-DA, 10 mM) according to the manufacturer’s instructions. Before application, CBLs and P-CBLs of a certain volume were diluted with complete culture medium. The final concentration of BBH was 0.0040 μM and 0.0020 μM for CHR in CBLs groups, while 0.0044 μM of BBH, 0.0018 μM for CHR for P-CBLs, respectively. The final drug concentration of CBs was the same as CBLs group. Treated cells were loaded with fluorescent probes in a serum-free medium for 20 min at 37 °C. Then, photographs were taken using a long-term real-time dynamic live cell imaging analyzer.

Row | Compound | stability in in vivo analysis [1] | intracellular ROS levels (relative fluorescence ratio) (ARPE-19)
1 | COc1ccc2cc3[n+](cc2c1OC)CCc1cc2c(cc1-3)OCO2 [BBH, berberine hydrochloride] | good stability for 7 h | could reduce intracellular ROS levels effectively
2 | Cc1cc(O)c2c(c1)C(=O)c1cccc(O)c1C2=O [CHR, chrysophanol] | good stability for 7 h | could reduce intracellular ROS levels effectively
